Measured values from EP4737454A1, “GLP-1 RECEPTOR AGONIST, AND PREPARATION METHOD THEREFOR AND USE THEREOF” (Wayne Biotechnology Co., Ltd., priority 2023, dated 2025).

Legend:
[1] = Pharmacokinetic analysis of compounds in mouse plasma after oral gavage or intravenous injection; type: in vivo, Male C57BL/6J mice; settings: for AUC(0-t) at 24 h / Cmax / Tmax / half-life / clearance: mouse plasma; for AUC(0-t) at 24 h / Cmax / Tmax: dose 5 mg/kg single oral gavage; for half-life: table dose 5 mg/kg (oral gavage); for clearance: table dose 5 mg/kg, IV arm was 1 mg/kg; for F: mouse, PO 5 mg/kg versus IV 1 mg/kg
Procedure: Male C57BL/6J mice, approximately 30 g, 6-9 weeks old, gavage oral administration and intravenous injection: 3 mice per compound, animals from Shanghai Medicilon Inc.
The pharmacokinetic characteristics of the compounds were tested in mice after oral gavage (PO) or intravenous injection (IV) using a standard protocol. The test compounds were prepared as clear solutions with the vehicle: 10% (v/v) DMSO + 10% (v/v) Solutol + 80% (v/v) Saline. Three mice were administered a single oral gavage dose of 5 mg/kg, and blood samples were collected at 0.25, 0.5, 1, 2, 4, 6, 8, and 24 hours post-dose via submandibular vein or other appropriate methods. Each sample collected was approximately 0.03 mL, anticoagulated with sodium heparin, and placed on ice after collection. Additionally, three mice were administered a single intravenous injection of 1 mg/kg of the test compound, and blood samples were collected at 0.083, 0.25, 0.5, 1, 2, 4, 8, and 24 hours post-dose via submandibular vein or other appropriate methods. Each sample collected was approximately 0.03 mL, anticoagulated with sodium heparin, and placed on ice after collection. Plasma was separated by centrifugation within 1 hour (centrifugation conditions: 6800g, 6 minutes, 2-8°C), and the concentration of the compounds of the present invention was analyzed by LC-MS/MS method.
Prior to analysis, all samples were stored at -80°C, and pharmacokinetic parameters were calculated using Phoenix WinNonlin. Table 2: Pharmacokinetic Parameters

[2] = molecular target: Human GLP-1R (Homo sapiens, UniProt P43220); experiment: cAMP level determination in human GLP-1R stably transfected HEK293T cells (HTRF cAMP kit); type: cell-based; settings: 37°C 30 min
Procedure, shortened: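 Stably transfected HEK293T cells (1 Million/mL) stimulated 30 min at 37°C with compound (top final 2000 nM, 1:3, 11 points, 0.2% DMSO) plus 0.5 mM IBMX. HTRF cAMP read after 2 hr RT; stimulation % normalised to 100 nM GLP-1 and DMSO wells, cAMP from standard curve, EC50 by four-parameter fit.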

Sequence of Human GLP-1R (P43220 24-463): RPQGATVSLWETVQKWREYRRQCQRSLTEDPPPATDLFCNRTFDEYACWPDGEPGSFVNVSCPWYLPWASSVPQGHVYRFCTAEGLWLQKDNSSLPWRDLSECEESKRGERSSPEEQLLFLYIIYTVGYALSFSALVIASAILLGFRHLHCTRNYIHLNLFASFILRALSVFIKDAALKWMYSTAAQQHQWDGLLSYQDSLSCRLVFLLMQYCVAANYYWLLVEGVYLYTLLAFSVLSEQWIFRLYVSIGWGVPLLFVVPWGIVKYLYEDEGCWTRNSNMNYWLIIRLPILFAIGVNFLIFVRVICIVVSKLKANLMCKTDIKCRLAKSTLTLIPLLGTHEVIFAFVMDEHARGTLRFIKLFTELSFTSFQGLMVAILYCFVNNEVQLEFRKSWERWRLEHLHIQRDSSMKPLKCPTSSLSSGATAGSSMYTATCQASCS

SMILES | AUC(0-t) at 24 h [1] [ng·h/mL] | Cmax [1] [ng/mL] | Tmax [1] [h] | half-life [1] [h] | clearance [1] [mL/min/kg] | F [1] [%] | EC50 [2] [nM]
Cc1cc(-n2nc3c(c2-n2ccn(-c4ccc(C(=O)N(C)C5CC5)c(F)c4F)c2=O)[C@H](C)N(C(=O)c2cc4cc([C@H]5CCOC(C)(C)C5)ccc4n2[C@@]2(c4nc(=O)o[nH]4)C[C@@H]2C)CC3)cc(C)c1F [Compound 5] | 36700 | 3880 | 1.33 | 3.11 | 2.38 | 105.86 | 7.69
Cc1cc(-n2nc3c(c2-n2ccn(-c4ccc(C(=O)N(C)C5CC5)c(Cl)c4F)c2=O)[C@H](C)N(C(=O)c2cc4cc([C@H]5CCOC(C)(C)C5)ccc4n2[C@@]2(c4nc(=O)o[nH]4)C[C@@H]2C)CC3)cc(C)c1F [Compound 7] | 34700 | 3120 | 1.33 | 3.41 | 1.94 | 81.76 | 6.12
Cc1cc(-n2nc3c(c2-n2ccn(-c4ccc(C(=O)N(C)C5CC5)c(Cl)c4)c2=O)[C@H](C)N(C(=O)c2cc4cc([C@H]5CCOC(C)(C)C5)ccc4n2[C@@]2(c4nc(=O)o[nH]4)C[C@@H]2C)CC3)cc(C)c1F [Compound 11] | 35200 | 3170 | 3 | 4.27 | 2.02 | 87.27 | 5.03
